Experimental data published in PMC11602245 (Journal of Peptide Science, 2024).
Starred links: 1 amine or outer side, 2 acyl side, 3 side chain; linkers in the order of their positions; H or OH if unused. Positions of bridges follow the written chain, without caps; N, C: chain ends. Non-standard residues stand in square brackets, D forms with d. Residues, ends and D or L forms follow the SMILES beside them. *: point of attachment. X1 = NC(=O)C[C@H](N[*:1])c1cn([C@@H](Cc2ccccc2)C(=O)[*:2])nn1; DOTA = O=C(O)CN1CCN(CC(=O)O)CCN(CC(=O)*)CCN(CC(=O)O)CC1; NMeF = CN[C@@H](Cc1ccccc1)C(=O)O

How the values were obtained:
human plasma = conditions: 37°C, up to 24 h
[1] = Metabolic stability in human plasma; type: in vitro ADME
Experimental: The human plasma used in the in vitro stability assays was purchased from Sigma‐Aldrich (H4522‐20ML).
The stability assays were conducted by incubating the ^111In‐labeled peptide conjugates in human plasma at 37°C for 24 h (n = 2). The detailed description of the procedure is described elsewhere.[13]
In order to assess the proteolytic stability of the new radiolabeled peptide conjugates, in vitro stability studies were conducted in blood plasma. [^111In]In‐XG1 and [^111In]In‐XG1‐A/B/C were incubated in human plasma at 37°C, and samples were taken after 24 h for their analysis by γ‐HPLC (Figure 3). […] This hypothesis is also supported by previously reported data that identified Thr^10‐Phe^11 as one of the main cleavage sites of the native SST‐14.[15] […] To better understand the degradation of [^111In]In‐XG1‐C over time, the stability was also determined after 4 h incubation in plasma (Figure 3D), after which only 27% of the original radiopeptide remained intact. […] We hypothesize that the incorporation of the methylated amino acid (N‐Me‐Phe^11) leads to a conformation of the peptide that facilitates the accessibility of amide bonds to proteases. Similar observations have been reported for other triazolo‐peptidomimetics.[11] […] For example, one of the main enzymes involved in the degradation of the native SST‐14 is neprilysin (NEP), a membrane‐bound metalloprotease abundantly expressed in various tissues.[21], [22] The role of this enzyme in the degradation of peptides cannot be contemplated with in vitro plasma stability assays but would have to be assessed in vivo (e.g., mice).[23]

[2] = biological target: T1, SST2R‐overexpressing AR42J cells (Rattus norvegicus, UniProt P30680); test: Cell binding and internalization studies; type: cell-based; conditions: after 2 h, corresponds to the determined unspecific binding (blocking experiments)
T1 construct: incubating the ^111In‐labeled peptide conjugates with SST2R‐overexpressing AR42J cells in six well plates; host or cells: AR42J cells
Experimental: The AR42J cell line was purchased from the American Type Culture Collection (ATCC).
The cell binding and internalization assays were performed by incubating the ^111In‐labeled peptide conjugates with SST2R‐overexpressing AR42J cells in six well plates as previously described (n = 2–3 in triplicates).[13]
The binding of radiolabeled somatostatin derivatives to multiple SSTRs is of high interest because it allows to address a wide range of cancers with distinctive SSTR‐subtype expression patterns.[24] Yet, SST2R is of major medical importance because it is over‐expressed or co‐expressed by most cancer types (e.g., NETs).[25] Thus, we first focused on SST2R by conducting cell binding and internalization experiments with the SST2R‐expressing cell line AR42J. In order to determine the specificity of the binding and internalization of the radiolabeled peptides, the octapeptide TATE (DPhe^1‐cycle(Cys^2‐Phe^3‐DTrp^4‐Lys^5‐Thr^6‐Cys^7)Thr^8) was used in excess for blocking experiments. […] These values are in accordance with previously reported data.[13] […] From the total applied activity, <1% was found at the cell membrane and internalized, which corresponds to the determined unspecific binding (blocking experiments). See Figure S9 for the results of the binding and internalization studies. […]

[3] = cited from earlier work

T1 sequence (P30680 whole entry): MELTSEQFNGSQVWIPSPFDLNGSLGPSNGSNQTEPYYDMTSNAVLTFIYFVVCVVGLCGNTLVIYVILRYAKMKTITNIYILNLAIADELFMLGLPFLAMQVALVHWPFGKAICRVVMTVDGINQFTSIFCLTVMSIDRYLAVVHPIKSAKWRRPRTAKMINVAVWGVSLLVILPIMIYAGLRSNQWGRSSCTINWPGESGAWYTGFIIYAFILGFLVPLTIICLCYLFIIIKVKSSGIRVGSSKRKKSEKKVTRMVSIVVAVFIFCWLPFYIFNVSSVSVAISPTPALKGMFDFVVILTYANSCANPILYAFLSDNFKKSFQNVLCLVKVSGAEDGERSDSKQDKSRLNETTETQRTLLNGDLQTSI

[DOTA,Asn^5‐Ψ[Tz]‐Phe^6,DTrp^8,Thr^10‐Ψ[NH]‐Phe^11]SST‐14
not cleaved (human plasma): more than 97% of intact peptide after 24 h

C[C@H](NC(=O)CN1CCN(CC(=O)O)CCN(CC(=O)O)CCN(CC(=O)O)CC1)C(=O)NCC(=O)N[C@H]1CSSC[C@@H](C(=O)O)NC(=O)[C@H](CO)NC(=O)[C@H]([C@@H](C)O)NC(=O)[C@H](Cc2ccccc2)N(C)C(=O)[C@H]([C@@H](C)O)NC(=O)[C@H](CCCCN)NC(=O)[C@@H](Cc2c[nH]c3ccccc23)NC(=O)[C@H](Cc2ccccc2)NC(=O)[C@H](Cc2ccccc2)n2cc(nn2)[C@H](CC(N)=O)NC(=O)[C@H](CCCCN)NC1=O [[^111In]In‐XG1‐C, [DOTA,Asn^5‐Ψ[Tz]‐Phe^6,DTrp^8,N‐Me‐Phe^11]SST‐14, metal not drawn] ({DOTA}-AGCK[X1]F[dW]KT[NMeF]TSC-OH; disulfide 3-13)
remaining at 4 h ([1]; human, plasma): 27%

C[C@H](NC(=O)CN1CCN(CC(=O)O)CCN(CC(=O)O)CCN(CC(=O)O)CC1)C(=O)NCC(=O)N[C@H]1CSSC[C@@H](C(=O)O)NC(=O)[C@H](CO)NC(=O)[C@H]([C@@H](C)O)NC(=O)[C@H](Cc2ccccc2)NC(=O)[C@H]([C@@H](C)O)NC(=O)[C@H](CCCCN)NC(=O)[C@@H](Cc2c[nH]c3ccccc23)NC(=O)[C@H](Cc2ccccc2)NC(=O)[C@H](Cc2ccccc2)n2cc(nn2)[C@H](CC(N)=O)NC(=O)[C@H](CCCCN)NC1=O [[^111In]In‐XG1, [DOTA,Asn^5‐Ψ[Tz]‐Phe^6,DTrp^8]SST‐14, metal not drawn] ({DOTA}-AGCK[X1]F[dW]KTFTSC-OH; disulfide 3-13)
major radiometabolite at rt = 6.4 min [1]: 35.3% | remaining at 24 h ([1]; human, plasma): 56%

[DOTA,Asn^5‐Ψ[Tz]‐Phe^6,DTrp^8,β‐Phe^11]SST‐14 [[^111In]In‐XG1‐A]
total applied activity found at the cell membrane and internalized [2]: < 1%

Ala^1 Gly^2 Cys^3 Lys^4 Asn^5 Phe^6 Phe^7 DTrp^8 Lys^9 Thr^10 Phe^11 Thr^12 Ser^13 Cys^14
cleaved bond [3]: Thr10-Phe11, major

[DOTA,Asn^5‐Ψ[Tz]‐Phe^6,DTrp^8,β‐Phe^11]SST‐14
not cleaved (human plasma): more than 97% of intact peptide after 24 h

C[C@H](NC(=O)CN1CCN(CC(=O)O)CCN(CC(=O)O)CCN(CC(=O)O)CC1)C(=O)NCC(=O)N[C@H]1CSSC[C@@H](C(=O)O)NC(=O)[C@H](CO)NC(=O)[C@H]([C@@H](C)O)NC(=O)[C@H](Cc2ccccc2)NC[C@H]([C@@H](C)O)NC(=O)[C@H](CCCCN)NC(=O)[C@@H](Cc2c[nH]c3ccccc23)NC(=O)[C@H](Cc2ccccc2)NC(=O)[C@H](Cc2ccccc2)n2cc(nn2)[C@H](CC(N)=O)NC(=O)[C@H](CCCCN)NC1=O [[^111In]In‐XG1‐B, [DOTA,Asn^5‐Ψ[Tz]‐Phe^6,DTrp^8,Thr^10‐Ψ[NH]‐Phe^11]SST‐14, metal not drawn]
remaining at 24 h ([1]; human, plasma): > 97%
